8 molecules from US11459306B2, “Compounds, compositions, and methods for treating T-cell acute lymphoblastic leukemia” (The Trustees of Columbia University in the City of New York, priority 2017, dated 2022) can be followed below.

The Kd is a measure of binding affinity in units of concentration.

In series [1] the test system is mouse PTEN null/NOTCH activated T-ALL cell line. Briefly: Gene set enrichment analysis of murine T-ALL disease signature after drug treatment. In kind it is cell-based. To be noted: GSEA of T-ALL disease signature; 1 μM, 48 hours. The method, then: This was also accomplished by generating gene expression signatures to assess the effects of drug treatment. Global gene expression profiles were obtained in triplicate using a mouse PTEN null/NOTCH activated T-ALL cell line driven by over expression of the transcription factor LMO2. […] Tumor cells were cultured in the presence of CAL-130 (2.5 μM) or the gamma-secretase inhibitor (GSI) Compound E (1 μM). Compound E blocks the activity of NOTCH1, which is also believed to support T-ALL tumor formation, proliferation, and survival. Drug treated cells were harvested at time points known to affect the expression of the proto-oncogene cMyc (12 hours and 48 hours, respectively), a master regulator of cell growth, metabolism and survival. A Venn diagram was created to illustrate the overlap in genes altered by either PI3Kγ/δ blockade (red circle) or GSI (green circle) using a false discovery rate (FDR) of 0.0005 as cut off (FIG. 1A). Of note, ten-fold more genes were affected following PI3Kγ/δ blockade, including the majority (˜62%) of genes altered by GSI monotherapy, a highly significant finding (Fisher's exact test, P<2.2×10^−16).
A murine T-ALL disease signature was further defined by ranking all genes based on their differential expression in T-ALL samples compared to wild type murine thymocytes. […]

For another series, the target named is T1, PIK3CA (PI3Kα) (Homo sapiens, UniProt P42336).
T1 construct: purchased DiscoverX (KINOMEscan); host or cells: E. coli BL21-derived host (T7 phage) or HEK-293
The series can be described thus: KINOMEscan competition binding assay (DiscoverX). Particulars: DiscoveRx gene symbol PIK3CA (PI3Kα). The method, then: (§1) The compounds were tested using KINOMEscan™ (DiscoverX), which is based on a competition binding assay that quantitatively measures the ability of a compound to compete with an immobilized, active-site directed ligand. The assay is performed by combining three components: DNA-tagged kinase; immobilized ligand; and a test compound. The ability of the test compound to compete with the immobilized ligand is measured via quantitative PCR of the DNA tag.
(§2) For most assays, kinase-tagged T7 phage strains were prepared in an E. coli host derived from the BL21 strain. E. coli were grown to log-phase and infected with T7 phage and incubated with shaking at 32° C. until lysis. The lysates were centrifuged and filtered to remove cell debris. The remaining kinases were produced in HEK-293 cells and subsequently tagged with DNA for qPCR detection. Streptavidin-coated magnetic beads were treated with biotinylated small molecule ligands for 30 minutes at room temperature to generate affinity resins for kinase assays. The liganded beads were blocked with excess biotin and washed with blocking buffer (SeaBlock (Pierce), 1% BSA, 0.05% Tween 20, 1 mM DTT) to remove unbound ligand and to reduce non-specific binding. Binding reactions were assembled by combining kinases, liganded affinity beads, and test compounds in 1× binding buffer (20% SeaBlock, 0.17×PBS, 0.05% Tween 20, 6 mM DTT). Test compounds were prepared as 111× stocks in 100% DMSO. Kds were determined using an 11-point 3-fold compound dilution series with three DMSO control points. All compounds for Kd measurements are distributed by acoustic transfer (non-contact dispensing) in 100% DMSO. The compounds were then diluted directly into the assays such that the final concentration of DMSO was 0.9%. All reactions performed in polypropylene 384-well plate. Each was a final volume of 0.02 ml. The assay plates were incubated at room temperature with shaking for 1 hour and the affinity beads were washed with wash buffer (1×PBS, 0.05% Tween 20). The beads were then re-suspended in elution buffer (1×PBS, 0.05% Tween 20, 0.5 μM non-biotinylated affinity ligand) and incubated at room temperature with shaking for 30 minutes. The kinase concentration in the eluates was measured by qPCR.
(§3) An 11-point 3-fold serial dilution of each test compound was prepared in 100% DMSO at 100× final test concentration and subsequently diluted to 1× in the assay (final DMSO concentration=1%). Most Kds were determined using a compound top concentration=30,000 nM. If the initial Kd determined was <0.5 nM (the lowest concentration tested), the measurement was repeated with a serial dilution starting at a lower top concentration.
(§4) Binding constants (Kds) were calculated with a standard dose-response curve using the Hill equation: […]
(§5) The Hill Slope was set to −1. Curves were fitted using a non-linear least square fit with the Levenberg-Marquardt algorithm.

Another series has as its target T2, PIK3CB (PI3Kβ) (Homo sapiens, UniProt P42338).
T2 construct: purchased DiscoverX (KINOMEscan); host or cells: E. coli BL21-derived host (T7 phage) or HEK-293
Briefly: KINOMEscan competition binding assay (DiscoverX). To be noted: DiscoveRx gene symbol PIK3CB (PI3Kβ). The method, then: as §1, §2, §3, §4, §5

The next series deals with T3, PIK3CD (Homo sapiens, UniProt O00329).
T3 construct: purchased DiscoverX (KINOMEscan); host or cells: E. coli BL21-derived host (T7 phage) or HEK-293
T3 sequence (O00329 1-1044): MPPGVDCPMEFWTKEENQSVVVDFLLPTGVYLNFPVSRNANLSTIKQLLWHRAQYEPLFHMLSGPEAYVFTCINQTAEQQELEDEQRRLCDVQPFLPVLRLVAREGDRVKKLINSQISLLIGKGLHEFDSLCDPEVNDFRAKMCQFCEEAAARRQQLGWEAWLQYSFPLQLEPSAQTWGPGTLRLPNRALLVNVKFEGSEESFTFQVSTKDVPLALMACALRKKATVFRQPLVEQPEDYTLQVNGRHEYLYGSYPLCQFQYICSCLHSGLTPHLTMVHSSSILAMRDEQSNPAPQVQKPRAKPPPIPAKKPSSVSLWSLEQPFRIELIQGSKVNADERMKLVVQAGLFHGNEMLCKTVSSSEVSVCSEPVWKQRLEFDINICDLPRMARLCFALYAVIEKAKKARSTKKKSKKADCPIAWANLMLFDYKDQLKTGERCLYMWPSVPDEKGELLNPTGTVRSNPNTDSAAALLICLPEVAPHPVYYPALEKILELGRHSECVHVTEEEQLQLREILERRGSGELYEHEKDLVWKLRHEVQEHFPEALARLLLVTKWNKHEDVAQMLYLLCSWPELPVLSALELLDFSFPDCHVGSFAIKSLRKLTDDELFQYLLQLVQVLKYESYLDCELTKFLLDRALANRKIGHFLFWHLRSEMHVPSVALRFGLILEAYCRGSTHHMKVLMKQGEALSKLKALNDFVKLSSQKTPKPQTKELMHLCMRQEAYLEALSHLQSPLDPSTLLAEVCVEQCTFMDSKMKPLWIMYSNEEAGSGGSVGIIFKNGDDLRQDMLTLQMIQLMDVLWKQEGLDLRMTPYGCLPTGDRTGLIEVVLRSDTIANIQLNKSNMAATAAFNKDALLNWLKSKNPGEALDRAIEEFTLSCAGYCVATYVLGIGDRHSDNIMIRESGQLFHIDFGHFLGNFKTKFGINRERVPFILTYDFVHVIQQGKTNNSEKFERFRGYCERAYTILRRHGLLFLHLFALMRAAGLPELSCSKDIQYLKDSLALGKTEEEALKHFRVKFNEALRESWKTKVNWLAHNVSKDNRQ
The series can be described thus: KINOMEscan competition binding assay (DiscoverX). Particulars: DiscoveRx gene symbol PIK3CD (b251 prints: PI3Kγ). The method, then: as §1, §2, §3, §4, §5

In another series the target is T4, PIK3CG (Homo sapiens, UniProt P48736).
T4 construct: purchased DiscoverX (KINOMEscan); host or cells: E. coli BL21-derived host (T7 phage) or HEK-293
The series can be described thus: KINOMEscan competition binding assay (DiscoverX). Particulars: DiscoveRx gene symbol PIK3CG (b251 prints: PI3Kδ). On the procedure: as §1, §2, §3, §4, §5

For a further series, the system named is T-ALL cell line. The series can be described thus: T-ALL cell viability / cell death. The format is cell-based, murine. On the procedure:
Compounds DWL-PI3K-1, DWL-PI3K-2, DWL-PI3K-3, DWL-PI3K-4, DWL-PI3K-5, DWL-PI3K-6 and DWL-PI3K-7, and reference compounds CAL-130, tenalisib, duvelisib were evaluated for efficacy (cell viability by measuring ATP (CellTiter-Glo) or propidium iodide (PI) uptake) against a number of cancer cells, including LMO-2-007, OCI-LY-10, HH, H9, PF382 and CCRF-CEM.

Series [2] concerns murine PTEN null T-ALL cell line lacking both p110γ and p110δ catalytic domains. The series can be described thus: Killing of T-ALL cell line lacking p110γ and p110δ. The format is cell-based. To be noted: selectivity control line. From the text: Compounds described herein also appear to be selective for p110 catalytic domains of PI3Kγ and PI3Kδ as treatment, for example, of a T-ALL cell line lacking these two p110 isoforms results in limited cell killing.

Series [3] can be described thus: Pharmacokinetics relative to CAL-130. In kind it is in vivo.
The next series concerns T-ALL. Briefly: Tumor burden and survival of mice with T-ALL. In kind it is in vivo.

T4 sequence (P48736 whole entry): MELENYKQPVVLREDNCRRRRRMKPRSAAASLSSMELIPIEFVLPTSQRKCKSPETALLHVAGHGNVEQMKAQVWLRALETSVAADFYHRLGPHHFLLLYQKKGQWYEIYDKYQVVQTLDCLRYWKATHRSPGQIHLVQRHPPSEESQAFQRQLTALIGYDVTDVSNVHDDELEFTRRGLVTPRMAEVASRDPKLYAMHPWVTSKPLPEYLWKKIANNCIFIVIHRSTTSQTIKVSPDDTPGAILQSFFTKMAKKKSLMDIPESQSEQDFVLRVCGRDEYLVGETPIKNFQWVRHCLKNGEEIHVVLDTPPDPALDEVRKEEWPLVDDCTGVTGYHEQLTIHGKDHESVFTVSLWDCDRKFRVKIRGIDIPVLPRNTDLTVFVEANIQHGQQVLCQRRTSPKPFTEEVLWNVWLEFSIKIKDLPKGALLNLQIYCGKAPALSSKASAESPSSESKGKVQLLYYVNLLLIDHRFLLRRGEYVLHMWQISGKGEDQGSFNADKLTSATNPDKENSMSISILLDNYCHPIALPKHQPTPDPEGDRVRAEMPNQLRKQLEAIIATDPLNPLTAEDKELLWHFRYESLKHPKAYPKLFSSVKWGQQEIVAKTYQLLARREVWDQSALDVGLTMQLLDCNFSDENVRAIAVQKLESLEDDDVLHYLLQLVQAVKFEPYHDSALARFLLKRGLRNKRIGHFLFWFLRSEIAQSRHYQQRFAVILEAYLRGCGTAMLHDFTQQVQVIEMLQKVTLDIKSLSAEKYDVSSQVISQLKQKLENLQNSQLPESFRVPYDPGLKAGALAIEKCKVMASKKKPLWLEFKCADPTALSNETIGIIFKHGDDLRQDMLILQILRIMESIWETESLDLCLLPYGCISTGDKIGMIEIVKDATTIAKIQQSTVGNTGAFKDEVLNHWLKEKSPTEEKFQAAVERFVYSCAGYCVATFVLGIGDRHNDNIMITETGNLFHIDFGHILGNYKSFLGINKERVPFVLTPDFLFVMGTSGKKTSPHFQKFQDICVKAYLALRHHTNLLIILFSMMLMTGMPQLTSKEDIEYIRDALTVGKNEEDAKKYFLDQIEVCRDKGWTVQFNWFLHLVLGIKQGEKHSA
T1 sequence (P42336 whole entry): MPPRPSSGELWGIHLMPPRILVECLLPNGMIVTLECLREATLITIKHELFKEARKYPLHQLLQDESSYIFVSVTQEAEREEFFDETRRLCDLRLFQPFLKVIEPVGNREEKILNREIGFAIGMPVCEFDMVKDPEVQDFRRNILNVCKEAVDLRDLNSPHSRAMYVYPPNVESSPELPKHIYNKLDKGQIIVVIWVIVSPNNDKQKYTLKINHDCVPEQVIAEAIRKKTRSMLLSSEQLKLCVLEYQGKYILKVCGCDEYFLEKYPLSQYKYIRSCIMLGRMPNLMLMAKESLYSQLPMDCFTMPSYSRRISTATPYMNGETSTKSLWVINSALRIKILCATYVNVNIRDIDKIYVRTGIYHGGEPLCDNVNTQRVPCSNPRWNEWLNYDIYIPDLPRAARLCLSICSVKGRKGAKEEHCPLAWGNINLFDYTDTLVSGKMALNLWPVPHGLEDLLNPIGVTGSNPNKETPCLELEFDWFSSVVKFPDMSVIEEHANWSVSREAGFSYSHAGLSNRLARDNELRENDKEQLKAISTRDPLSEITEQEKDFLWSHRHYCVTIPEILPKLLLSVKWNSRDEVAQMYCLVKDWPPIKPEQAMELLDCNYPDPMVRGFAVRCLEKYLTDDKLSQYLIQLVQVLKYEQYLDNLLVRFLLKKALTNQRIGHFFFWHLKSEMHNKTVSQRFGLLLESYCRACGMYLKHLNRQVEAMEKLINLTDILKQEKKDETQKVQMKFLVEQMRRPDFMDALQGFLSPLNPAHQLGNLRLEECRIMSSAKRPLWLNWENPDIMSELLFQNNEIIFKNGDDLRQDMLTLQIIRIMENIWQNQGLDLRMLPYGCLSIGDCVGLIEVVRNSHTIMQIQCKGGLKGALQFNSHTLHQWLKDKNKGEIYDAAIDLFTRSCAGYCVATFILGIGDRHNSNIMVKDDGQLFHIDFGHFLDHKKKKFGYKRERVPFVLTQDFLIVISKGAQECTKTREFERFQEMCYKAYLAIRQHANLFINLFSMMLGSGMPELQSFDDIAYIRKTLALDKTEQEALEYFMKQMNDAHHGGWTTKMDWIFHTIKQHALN
T2 sequence (P42338 whole entry): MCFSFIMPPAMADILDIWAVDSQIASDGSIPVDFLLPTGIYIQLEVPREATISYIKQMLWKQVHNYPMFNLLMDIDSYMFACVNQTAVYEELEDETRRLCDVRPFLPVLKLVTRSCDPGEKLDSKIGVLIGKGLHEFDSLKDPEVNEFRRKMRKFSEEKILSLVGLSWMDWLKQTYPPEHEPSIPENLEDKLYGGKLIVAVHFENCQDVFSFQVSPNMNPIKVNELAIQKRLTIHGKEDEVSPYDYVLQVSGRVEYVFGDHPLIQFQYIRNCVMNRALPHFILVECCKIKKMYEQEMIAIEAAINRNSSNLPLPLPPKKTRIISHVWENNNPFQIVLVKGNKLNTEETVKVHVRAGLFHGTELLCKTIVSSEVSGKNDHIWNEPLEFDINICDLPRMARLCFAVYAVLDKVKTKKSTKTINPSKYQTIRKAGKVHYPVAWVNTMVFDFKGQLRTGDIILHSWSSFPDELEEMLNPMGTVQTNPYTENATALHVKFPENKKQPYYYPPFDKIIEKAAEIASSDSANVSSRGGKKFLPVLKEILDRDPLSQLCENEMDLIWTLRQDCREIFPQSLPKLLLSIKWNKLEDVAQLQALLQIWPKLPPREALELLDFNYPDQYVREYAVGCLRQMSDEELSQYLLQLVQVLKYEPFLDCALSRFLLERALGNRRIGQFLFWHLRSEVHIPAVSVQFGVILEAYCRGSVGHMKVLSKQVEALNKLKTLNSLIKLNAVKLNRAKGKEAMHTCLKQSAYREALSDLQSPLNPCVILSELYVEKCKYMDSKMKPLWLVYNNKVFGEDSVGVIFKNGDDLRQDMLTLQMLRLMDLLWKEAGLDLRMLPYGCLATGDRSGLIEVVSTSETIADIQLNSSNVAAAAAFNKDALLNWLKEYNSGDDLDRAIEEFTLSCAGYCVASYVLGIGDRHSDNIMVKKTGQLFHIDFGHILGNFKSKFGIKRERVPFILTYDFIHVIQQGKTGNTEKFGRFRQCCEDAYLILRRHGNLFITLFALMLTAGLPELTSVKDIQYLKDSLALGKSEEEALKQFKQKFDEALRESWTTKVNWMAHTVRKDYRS

For the molecule `C[C@H](NC(=O)Cc1cc(F)cc(F)c1)C(=O)N[C@H]1N=C(c2ccccc2)c2ccccc2N(C)C1=O` [Compound E], the “normalized enrichment score (NES)” value in series [1] was −2.6.

Take `Cc1nc(N)nc(N[C@@H](C)c2cc3cccc(Cl)c3c(=O)n2-c2ccccc2)c1C#N` [DWL-PI3K-4, (S)-2-amino-4-((1-(8-chloro-1-oxo-2-phenyl-1,2-dihydroisoquinolin-3-yl)ethyl)amino)-6-methylpyrimidine-5-carbonitrile]: the Kd at PIK3CA (PI3Kα) worked out at 2.2 nM; at PIK3CB (PI3Kβ), 0.15 nM; on PIK3CD, 0.042 nM; at PIK3CG, 0.089 nM. The “efficacy in inducing T-ALL cell death relative to CAL-130” value in the series with T-ALL cell line (cultured T-ALL cells) is “greater efficacy than CAL-130”. For the same molecule, the “amount needed relative to CAL-130 to achieve a similar reduction in tumor cell survival” value in the series with T-ALL cell line was “about 10 fold less”. Moreover, the “cell killing of T-ALL cell line lacking p110γ and p110δ” value in series [2] was “limited killing”. The pharmacokinetics entry in series [3] is recorded as “better pharmacokinetics”.

Take `C[C@H](Nc1nc(N)nc(N)c1C#N)c1cc2cccc(Cl)c2c(=O)n1-c1cc(F)cc(F)c1` [DWL-PI3K-5, (S)-2,4-diamino-6-(1-(8-chloro-2-(3,5-difluorophenyl)-1-oxo-1,2-dihydroisoquinolin-3-yl)ethylamino)pyrimidine-5-carbonitrile]: the equilibrium dissociation constant (Kd) came out at 30 nM on PIK3CA (PI3Kα), 1.4 nM at PIK3CB (PI3Kβ), 0.12 nM at PIK3CD and 0.38 nM at PIK3CG. In the series on T-ALL cell line, the “amount needed relative to CAL-130 to achieve a similar reduction in tumor cell survival” value is “about 10 fold less”. For the same molecule, the pharmacokinetics result in series [3] was “better pharmacokinetics”.

`C[C@H](Nc1nc(N)nc(N)c1C#N)c1cc2cccc(Cl)c2c(=O)n1-c1cccc(F)c1` [DWL-PI3K-6, (S)-2,4-diamino-6-((1-(8-chloro-2-(3-fluorophenyl)-1-oxo-1,2-dihydroisoquinolin-3-yl)ethyl)amino)pyrimidine-5-carbonitrile]: the Kd at PIK3CA (PI3Kα) was determined as 10 nM; at PIK3CB (PI3Kβ), 0.46 nM; on PIK3CD it was 0.11 nM; at PIK3CG it was 0.27 nM. Moreover, the “amount needed relative to CAL-130 to achieve a similar reduction in tumor cell survival” value in the series on T-ALL cell line was “about 10 fold less”. Besides, in series [3], the pharmacokinetics result is given as “better pharmacokinetics”.

For `Cc1ccccc1-n1c([C@H](C)Nc2nc(N)nc(C)c2C#N)nc2cccc(C)c2c1=O` [DWL-PI3K-2, (S)-2-amino-4-methyl-6-((1-(5-methyl-4-oxo-3-(o-tolyl)-3,4-dihydroquinazolin-2-yl)ethyl)amino)pyrimidine-5-carbonitrile], the dissociation constant (Kd) at PIK3CA (PI3Kα) amounted to 53 nM; on PIK3CB (PI3Kβ), 4.3 nM; on PIK3CD, 0.62 nM; on PIK3CG, 0.62 nM. Besides, the “amount needed relative to CAL-130 to achieve a similar reduction in tumor cell survival” value in the series with T-ALL cell line is “about 10 fold less”. Further, the pharmacokinetics result in [3] is “better pharmacokinetics”.

`C[C@H](Nc1ncnc2nc[nH]c12)c1cc2cccc(Cl)c2c(=O)n1-c1ccccc1` [IPI-145]: the “effect on tumor burden and survival” value in the series with T-ALL is given as “not as effective in reducing tumor burden or in prolonging overall survival”. The mean survival in the series with T-ALL (30 mg/kg tid) worked out at 18 days.

In the case of `[2H]c1c([2H])c([2H])c(-n2c([C@H](C)Nc3nc(N)nc(N)c3C#N)cc3cccc(Cl)c3c2=O)c([2H])c1[2H]` [DWL-PI3K-7, (S)-2,4-diamino-6-((1-(8-chloro-1-oxo-2-(phenyl-d5)-1,2-dihydroisoquinolin-3-yl)ethyl)amino)pyrimidine-5-carbonitrile], the Kd on PIK3CA (PI3Kα) came to 6.1 nM; at PIK3CB (PI3Kβ) it was 0.3 nM; on PIK3CD, 0.12 nM; on PIK3CG it was 0.17 nM. In addition, the “amount needed relative to CAL-130 to achieve a similar reduction in tumor cell survival” value with T-ALL cell line is reported as “about 10 fold less”. For the same molecule, the “cell killing of T-ALL cell line lacking p110γ and p110δ” value in series [2] is “limited killing effect”. The pharmacokinetics result in [3] was “better pharmacokinetics”.

With `Cc1ccccc1-n1c([C@H](C)Nc2nc(N)nc(N)c2C#N)nc2cccc(C)c2c1=O` [DWL-PI3K-1, (S)-2,4-diamino-6-((1-(5-methyl-4-oxo-3-(o-tolyl)-3,4-dihydroquinazolin-2-yl)ethyl)amino)pyrimidine-5-carbonitrile], the dissociation constant (Kd) on PIK3CA (PI3Kα) is 20 nM; at PIK3CB (PI3Kβ) it was 0.92 nM; at PIK3CD it was 0.39 nM; on PIK3CG, 0.2 nM. Moreover, the “amount needed relative to CAL-130 to achieve a similar reduction in tumor cell survival” value in the series on T-ALL cell line is given as “about 10 fold less”. Further, in [3], the pharmacokinetics entry is on record as “better pharmacokinetics”.
